Measured values as given in PubChem BioAssay (NCI).
Where “and” joins values, the source holds several entries; their conditions need not be identical. Equal values may be shown once.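 Briefly, cells in 96-well plates were exposed to five compound concentrations for 48 h, and endpoints were estimated by linear interpolation. Here, GI50 denotes the concentration required for 50% inhibition of growth. TGI: total growth inhibition.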

What was measured:
Assay in all cases: NCI anticancer screen, dose series, 48 h
HCC-2998 colon = system: HCC-2998 colon
HCT-116 colon = system: HCT-116 colon
NCI-H23 lung = system: NCI-H23 lung
SF-268 CNS = system: SF-268 CNS
OVCAR-8 ovarian = system: OVCAR-8 ovarian
MDA-MB-231 breast = system: MDA-MB-231 breast
BT-549 breast = system: BT-549 breast
A549 NSCLC = system: A549 NSCLC
SK-MEL-2 melanoma = system: SK-MEL-2 melanoma
MDA-MB-435 = system: MDA-MB-435

Cn1c(-c2ccccc2)c(/C=C/C2=[N+](C)c3ccccc3C2(C)C)c2ccccc21
GI50 (HCC-2998 colon): 0.365 µM
TGI (HCC-2998 colon): 3.42 µM
GI50 (HCT-116 colon): 0.593 µM
TGI (HCT-116 colon): 7.11 µM
GI50 (NCI-H23 lung): 0.784 µM
TGI (NCI-H23 lung): 5.17 µM
GI50 (SF-268 CNS): 1.32 µM
TGI (SF-268 CNS): 12.9 µM
GI50 (OVCAR-8 ovarian): 0.84 µM
TGI (OVCAR-8 ovarian): 8.95 µM
GI50 (MDA-MB-231 breast): 2.18 µM
TGI (MDA-MB-231 breast): 22.8 µM
GI50 (BT-549 breast): 0.476 µM
TGI (BT-549 breast): 3.71 µM
GI50 (A549 NSCLC): 1.73 µM
TGI (A549 NSCLC): 12.8 µM
GI50 (SK-MEL-2 melanoma): 1.13 µM
TGI (SK-MEL-2 melanoma): 4.19 µM
GI50 (MDA-MB-435): 0.486 µM
TGI (MDA-MB-435): 4.02 µM

CCCCCCCC/C=C1\CCC(CN2CCOCC2)C1=O (stereo unspecified)
TGI (HCC-2998 colon): 26.2 µM
TGI (HCT-116 colon): 13.6 µM
TGI (NCI-H23 lung): 24.4 µM
TGI (SF-268 CNS): 21.1 µM
TGI (OVCAR-8 ovarian): 13.8 µM
TGI (MDA-MB-231 breast): 4.42 µM
TGI (BT-549 breast): 22.7 µM
TGI (A549 NSCLC): 24.7 µM
TGI (SK-MEL-2 melanoma): 28.8 µM
TGI (MDA-MB-435): 15.3 µM

O=C(/C=C1\C(=O)N(Cc2ccccc2)c2ccccc21)c1ccc(OCCN2CCCCC2)cc1
GI50 (HCC-2998 colon): 1.86 µM
TGI (HCC-2998 colon): 3.47 µM
GI50 (HCT-116 colon): 1.3 µM
TGI (HCT-116 colon): 2.67 µM
GI50 (NCI-H23 lung): 3.47 µM
TGI (NCI-H23 lung): 14.5 µM
GI50 (SF-268 CNS): 2.98 µM
TGI (SF-268 CNS): 10.7 µM
GI50 (OVCAR-8 ovarian): 2.13 µM
TGI (OVCAR-8 ovarian): 4.16 µM
GI50 (MDA-MB-231 breast): 1.92 µM
TGI (MDA-MB-231 breast): 3.88 µM
GI50 (BT-549 breast): 2.07 µM
TGI (BT-549 breast): 4.05 µM
GI50 (A549 NSCLC): 8.42 µM
TGI (A549 NSCLC): 21.6 µM
GI50 (SK-MEL-2 melanoma): 11.7 µM
TGI (SK-MEL-2 melanoma): 24.3 µM
GI50 (MDA-MB-435): 2.49 µM
TGI (MDA-MB-435): 9.33 µM

Cc1c(N)nc(C(CC(N)=O)NCC(N)C(N)=O)nc1C(=O)NC(C(=O)NC(C)C(O)C(C)C(=O)NC(C(=O)NCCc1nc(-c2nc(C(=O)NCCCNC(C)c3ccccc3)cs2)cs1)C(C)O)C(OC1OC(CO)C(O)C(O)C1OC1OC(CO)C(O)C(OC(N)=O)C1O)c1cnc[nH]1 (stereo unspecified)
TGI (HCC-2998 colon): 50 µM and > 100 µM
GI50 (HCT-116 colon): 1.76 µM
TGI (HCT-116 colon): 49.4 µM and > 100 µM
GI50 (NCI-H23 lung): 3.31 µM
TGI (NCI-H23 lung): 8.37 µM and 64.6 µM
GI50 (SF-268 CNS): 11.1 µM
TGI (SF-268 CNS): 50 µM and 94.7 µM
TGI (OVCAR-8 ovarian): 50 µM and > 100 µM
GI50 (MDA-MB-231 breast): > 100 µM
TGI (MDA-MB-231 breast): > 100 µM
TGI (BT-549 breast): 50 µM
GI50 (A549 NSCLC): 0.63 µM
TGI (A549 NSCLC): 50 µM and > 100 µM
GI50 (SK-MEL-2 melanoma): 66.5 µM
TGI (SK-MEL-2 melanoma): 30.6 µM and > 100 µM
GI50 (MDA-MB-435): 76 µM
TGI (MDA-MB-435): > 100 µM

O=c1oc2cc(OC/C(=N/O)c3ccc(F)cc3)ccc2c2ccccc12
GI50 (HCC-2998 colon): 17 µM
TGI (HCC-2998 colon): 30.7 µM
GI50 (HCT-116 colon): 15.8 µM
TGI (HCT-116 colon): 29.2 µM
GI50 (NCI-H23 lung): 19.1 µM
TGI (NCI-H23 lung): 34.2 µM
GI50 (SF-268 CNS): 21.1 µM
TGI (SF-268 CNS): 42.3 µM
GI50 (OVCAR-8 ovarian): 22.5 µM
TGI (OVCAR-8 ovarian): 43.6 µM
GI50 (MDA-MB-231 breast): 14.8 µM
TGI (MDA-MB-231 breast): 30.3 µM
GI50 (BT-549 breast): 21.7 µM
TGI (BT-549 breast): 42.3 µM
GI50 (A549 NSCLC): 18.2 µM
TGI (A549 NSCLC): 45.7 µM
GI50 (SK-MEL-2 melanoma): 21.3 µM
TGI (SK-MEL-2 melanoma): 40 µM
GI50 (MDA-MB-435): 17.3 µM
TGI (MDA-MB-435): 38.7 µM

Clc1ccc2nc(CI)c(CI)nc2c1
GI50 (HCC-2998 colon): 15.7 µM
TGI (HCC-2998 colon): 30.3 µM
GI50 (HCT-116 colon): 2.53 µM
GI50 (NCI-H23 lung): 7.37 µM
TGI (NCI-H23 lung): 25.8 µM
GI50 (SF-268 CNS): 4.69 µM
TGI (SF-268 CNS): 14.3 µM
GI50 (OVCAR-8 ovarian): 2.87 µM
TGI (OVCAR-8 ovarian): > 23.5 µM
GI50 (MDA-MB-231 breast): 2.67 µM
TGI (MDA-MB-231 breast): 7.58 µM
GI50 (BT-549 breast): 2.11 µM
TGI (BT-549 breast): 5.58 µM
GI50 (A549 NSCLC): 17.8 µM
TGI (A549 NSCLC): 38.7 µM
GI50 (SK-MEL-2 melanoma): 6.45 µM
TGI (SK-MEL-2 melanoma): > 32.6 µM
GI50 (MDA-MB-435): 3.16 µM
TGI (MDA-MB-435): 14.4 µM
